# Legend:
# [1] = system: Mouse Model of Capsaicin-induced Cough; test: Antitussive action using mouse model of capsaicin-induced cough; assay type: in vivo
# Description: Evaluation of Antitussive Action Using Mouse Model of Capsaicin-induced Cough
# Capsaicin (30 μM) was sent as aerosol to a cap attached to the head of a mouse by using an ultrasonic nebulizer and an artificial respiratory apparatus through a silicon tube, and inhaled by the mouse to induce coughs. For inhalation of capsaicin, capsaicin was sent by using the artificial respiratory apparatus at a rate of 60 times per minute in a dose of 5 ml at a time.
# 15 minutes before administration of a medicine, capsaicin was inhaled for 3 minutes, and it was confirmed that coughs were induced during this time. 15 minutes, 60 minutes and 120 minutes after administration of a medicine, capsaicin was inhaled for 3 minutes to measure the number of coughs induced during this time. The antitussive effect was evaluated by determining the inhibition rate shown by the number of coughs after administration of a medicine based on the number of coughs before administration of a medicine. Capsaicin was dissolved in 10% ethanol and a 10% Tween 80 solution, and diluted with physiological saline. The medicine was dissolved in physiological saline, and intraperitoneally administered.
# [2] = system: Rat Model of Capsaicin-induced Cough; test: Antitussive action using rat model of capsaicin-induced cough; assay type: in vivo, SD male rats; conditions: 30 minutes after administration, capsaicin 60 μM, versus distilled water group
# Excerpt: Evaluation of Antitussive Action Using Rat Model of Capsaicin-induced Cough
# Rat groups each consisting of 5 SD male rats (Charles River Japan) of 7 weeks old were used. The rats not anesthetized were placed in a container comprising two acrylic cylinders including a head and a body. A rubber collar and plastic collar were put on each of the rats, and the head and body of the container were independently provided.
# Capsaicin used as a medicine for inducing coughs was aerosolized by an ultrasonic nebulizer, and inhaled by the rats from the front side of the container by using an artificial respiration apparatus. The concentration of capsaicin was 60 μM. In this inhalation, the flow rate of air was 10 ml×70 times/min (700 ml/min). Changes in internal pressure of the closed body box were recorded on a recorder through a differential transducer. Coughs were measured by the changes in internal the body box and visually observing the motions of the rats.
# A medicine was diluted with distilled water, and 1 to 10 mg/5 ml/kg was subcutaneously administered.
# Each of the rats was fixed by a holder, and 60 minutes after, capsaicin was inhaled for 3 minutes to count the number of coughs. The rats having at least 9 coughs were subjected to examination of a medicine. The rats were administered subcutaneously with a medicine, and fixed by a holder, and 30 minutes after, capsaicin was inhaled for 3 minutes to count the number of coughs. The antitussive action of each of compounds was represented by the inhibition rate shown by the number of coughs of the group in which a medicine was administered based on the number of coughs of the group in which distilled water was administered.
compound,measurement,setting,value
COc1cccc([C@@]23CCN(C)C[C@@H]2Cc2cc4ccccc4nc2C3)c1,melting point,,154 to 155.5 °C
"CN1CC[C@@]2(c3cccc(O)c3)Cc3nc4ccccc4cc3CC2C1 (stereo in doubt) [Compound 2, (4aR, 12aR)-2-methyl-4a-(3-hydroxyphenyl)-1,2,3,4,4a,5,12,12a-octahydro-quinolino[2,3-g]isoquinoline]",time of peak antitussive effect after administration,[1]; 10 μg/kg intraperitoneal,15 min
same,antitussive effect 120 minutes after administration,"[1]; 10 μg/kg intraperitoneal, 120 minutes after administration",recovered to the same level as a group in which physiological saline was administered
same,effect of suppressing coughs (inhibition rate of number of coughs),"[1]; 10 μg/kg intraperitoneal, versus physiological saline group, p<0.05 (U test)",significant effect of suppressing coughs
same,ED50,"[1]; ip, intraperitoneal, fifteen minutes after administration, capsaicin 30 μM inhalation, calculated from FIG. 2, read-out: ED50 value of the antitussive effect",4.2 µg/kg
same,Inhibition rate (%) of number of coughs,[2]; 1 mg/kg subcutaneous,72.5%
"Oc1cccc([C@@]23CCNCC2Cc2cc4ccccc4nc2C3)c1 (stereo in doubt) [Compound 4, (4aR, 12aR)-4a-(3-hydroxyphenyl)-1,2,3,4,4a,5,12,12a-octahydroquinolino[2,3-g]isoquinoline]",Inhibition rate (%) of number of coughs,[2]; 10 mg/kg subcutaneous,34.0%
"Oc1cccc([C@@]23CCN(CC4CC4)CC2Cc2cc4ccccc4nc2C3)c1 (stereo in doubt) [Compound 6, (4aR, 12aR)-2-cyclopropylmethyl-4a-(3-hydroxyphenyl)-1,2,3,4,4a,5,12,12a-octahydroquinolino[2,3-g]isoquinoline]",Inhibition rate (%) of number of coughs,[2]; 1 mg/kg subcutaneous,30.9%
"Oc1cccc([C@@]23CCN(CCc4ccccc4)C[C@H]2Cc2cc4ccccc4nc2C3)c1 [Compound 7, (4aR, 12aR)-2-(2-phenethyl)-4a-(3-hydroxyphenyl)-1,2,3,4,4a,5,12,12a-octahydroquinolino[2,3-g]isoquinoline]",Inhibition rate (%) of number of coughs,[2]; 1 mg/kg subcutaneous,44.3%

# Source: US6337330B1, “Antitussives” (priority 1997, dated 2002)
